Assay results reported in PMC10104807, “Modulation of tau tubulin kinases (TTBK1 and TTBK2) impacts ciliogenesis” (Scientific Reports, 2023).
Several values for one entry are separate records, joined by “and”; a condition that tells them apart may be missing. Equal values may be shown once. Read-outs that look alike come from different tables or passages of the source.

What was measured:
[1] = target: T1, TTBK2 (Homo sapiens, UniProt Q6IQ55); assay: Eurofins enzymatic radiometric kinase assay; assay type: biochemical; conditions: for TTBK2 PoC: 1 μM, duplicate, lower = greater inhibition
T1 construct: purchased Eurofins

[2] = system: 403 wild-type (WT) human kinases; assay: DiscoverX scanMAX kinome-wide selectivity; assay type: binding; conditions: for # scanMAX kinases with PoC < 10: 1 μM; for S10(1 μM): share of 403 WT human kinases with PoC < 10 at 1 μM
Source text: This panel includes 403 wild-type (WT) human kinases but not TTBK1/2. […] Substantial overlap between the MRC and DiscoverX scanMAX kinase panels allows the comparison of results for the same kinases in two different assay formats (enzymatic versus binding, respectively) at the same concentration. Selectivity results are included in two columns within Table 1. […] The rightmost column converts this selectivity score into the number of kinases with a PoC < 10 in the scanMAX panel.
The Eurofins DiscoverX Corporation scanMAX assay platform was employed to assess the selectivity of specific analogs at a single concentration (1 µM). As described previously, this assay platform profiles a compound against 403 wild-type human kinases and delivers percent of control (PoC) values. These percent of control values are included in Table 1 and corresponding kinome tree diagrams as well as tables for each analog included in Fig. S1.

[3] = target: T2, TSSK4 (Homo sapiens, UniProt Q6SA08); assay: Eurofins enzymatic radiometric kinase assay; assay type: biochemical; conditions: ATP at Km, duplicate
T2 construct: purchased Eurofins (radiometric) / Eurofins DiscoverX scanMAX / Reaction Biology / SignalChem
T2 sequence (Q6SA08 1-328): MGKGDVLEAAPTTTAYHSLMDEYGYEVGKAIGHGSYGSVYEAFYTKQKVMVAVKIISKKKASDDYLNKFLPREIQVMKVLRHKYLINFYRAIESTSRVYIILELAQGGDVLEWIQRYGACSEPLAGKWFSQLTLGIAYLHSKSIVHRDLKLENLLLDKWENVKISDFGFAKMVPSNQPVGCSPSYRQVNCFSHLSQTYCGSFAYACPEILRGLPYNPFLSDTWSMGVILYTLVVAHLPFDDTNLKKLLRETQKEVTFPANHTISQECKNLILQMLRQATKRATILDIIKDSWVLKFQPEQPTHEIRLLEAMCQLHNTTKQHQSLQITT
Description: (§1) The column labeled “# < 10 PoC in enzyme panel” in Table 1 reports the number of kinases in this 17-member panel inhibited > 90% by each analog.
(§2) Details about the substrate used, protein constructs, controls, and assay protocol for these kinase assays are available at the Eurofins website: https://www.eurofinsdiscoveryservices.com. Reaction Biology Corp. (RBC) radiometric HotSpot kinase assays were carried out at the Km value for ATP in dose–response (10-pt curve) format for MYLK4, RIPK5, and YSK4 in Table S2. Details about the substrate used, protein constructs, controls, and assay protocol for these kinase assays are available at the RBC website: https://www.reactionbiology.com/list-kinase-targets-us-facility. SignalChem developed an ADP-Glo assay to test for enzymatic inhibition of PIKfyve in dose–response (10-pt curve) format in duplicate.

[4] = target: T3, TSSK3 (Homo sapiens, UniProt Q96PN8); assay: Eurofins enzymatic radiometric kinase assay; assay type: biochemical; conditions: ATP at Km, duplicate
T3 construct: purchased Eurofins
T3 sequence (Q96PN8 1-268): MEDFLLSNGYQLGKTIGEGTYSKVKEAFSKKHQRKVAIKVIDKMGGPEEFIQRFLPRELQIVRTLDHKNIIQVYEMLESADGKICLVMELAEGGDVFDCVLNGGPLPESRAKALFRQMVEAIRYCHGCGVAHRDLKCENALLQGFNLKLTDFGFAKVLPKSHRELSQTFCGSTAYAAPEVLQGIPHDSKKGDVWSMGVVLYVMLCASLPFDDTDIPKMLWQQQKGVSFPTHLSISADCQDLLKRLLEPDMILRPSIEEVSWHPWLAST
Description: as §1, §2

[5] = target: T4, PAK6 (Homo sapiens, UniProt Q9NQU5); assay: Eurofins enzymatic radiometric kinase assay; assay type: biochemical; conditions: ATP at Km, duplicate
T4 construct: purchased Eurofins (radiometric) / Eurofins DiscoverX scanMAX / Reaction Biology / SignalChem
Description: as §1, §2

[6] = target: T5, PAK5 (Homo sapiens, UniProt Q9P286); assay: Eurofins enzymatic radiometric kinase assay; assay type: biochemical; conditions: ATP at Km, duplicate
T5 construct: purchased Eurofins (radiometric) / Eurofins DiscoverX scanMAX / Reaction Biology / SignalChem
Description: as §1, §2

[7] = target: T6, MAP4K5 (Homo sapiens, UniProt Q9Y4K4); assay: Eurofins enzymatic radiometric kinase assay; assay type: biochemical; conditions: ATP at Km, duplicate
T6 construct: purchased Eurofins
Description: as §1, §2

[8] = target: T7, HIPK1 (Homo sapiens, UniProt Q86Z02); assay: Eurofins enzymatic radiometric kinase assay; assay type: biochemical; conditions: ATP at Km, duplicate
T7 construct: purchased Eurofins (radiometric) / Eurofins DiscoverX scanMAX / Reaction Biology / SignalChem
Description: as §1, §2

[9] = target: T8, PAK7 (Homo sapiens, UniProt Q9P286); assay: DiscoverX scanMAX binding assay
T8 construct: purchased Eurofins (radiometric) / Eurofins DiscoverX scanMAX / Reaction Biology / SignalChem
Outline: (§3)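 Each analog was screened once at 1 µM for kinase binding within a 403-member wild-type human panel. Data are given as percent of control; selectivity was also summarised as the count of kinases with PoC < 10.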

[10] = target: T4, PAK6; assay: DiscoverX scanMAX binding assay
Outline: as §3

[11] = target: 17-member enzymatic kinase assay panel; assay: 17-member enzymatic kinase panel, number of kinases inhibited; assay type: biochemical; conditions: 1 μM; of 17 kinases
[12] = target: T9, NLuc-TTBK1 (Homo sapiens, UniProt Q5TCY1); assay: TTBK1 NanoBRET cellular target engagement assay in HEK293 cells; assay type: cell-based; conditions: 2 μM tracer 29
T9 construct: host or cells: HEK293
Description: HEK293 cells were transfected with constructs of TTBK1 or TTBK2 tagged with NLuc on the N- or C-terminus as previously described[43] Constructs for NanoBRET measurements of TTBK1 (NLuc-TTBK1 and TTBK1-NLuc) and TTBK2 (NLuc-TTBK2 and TTBK2-NLuc) were kindly provided by Promega. NLuc orientations used in the respective assays are indicated. Cells were plated in 96-well tissue culture treated plates (Corning 3917) at a cell density of 2 × 10^5 cells/mL, with a total volume of 100 μL per well in DMEM. […] NanoBRET plates were read after addition of 50 μL of a stock solution (3X) containing NanoBRET NanoGlo substrate (Promega N2161), extracellular NanoLuc inhibitor (Promega N2161) and Opti-MEM. For a 96-well plate the 3X stock solution was prepared with 30 μL of NanoBRET NanoGlo substrate, 10 μL of extracellular NanoLuc inhibitor, and 4960 μL of Opti-MEM without phenol red. […] HEK293 cells were transfected with NLuc-TTBK1 or NLuc-TTBK2. […] One biological replicate was plotted in GraphPad Prism with log[inhibitor] vs. response (three parameters) and included in Fig. 3C. NanoBRET assays were carried out in dose-response format as described previously. NLuc orientations used in the respective assays are as follows: NLuc-TTBK1, NLuc-TTBK2, and PIP4K2C-NLuc (for PI5[…]γ). […] Data are reported as IC50 ± standard error mean (SEM). For PI5[…]γ, 9 was tested in 12-point dose-response format with a top concentration of 10 μM (data in Table S2). One biological replicate was plotted in GraphPad Prism with log[inhibitor] vs. response (three parameters).

[13] = target: T10, RPS6KA4(Kin.Dom.2-C-terminal) (Homo sapiens, UniProt O75676); assay: DiscoverX scanMAX binding assay; conditions: 1 μM
T10 construct: RPS6KA4(Kin.Dom.2-C-terminal); purchased Eurofins (radiometric) / Eurofins DiscoverX scanMAX / Reaction Biology / SignalChem
Outline: as §3

[14] = ATP at Km, dose–response 9-pt curve
[15] = intact HEK293 cells, read-out: TTBK1 intact cell NB IC50
[16] = permeabilized HEK293 cells (digitonin), read-out: TTBK1 permeabilized cell NB IC50

T5 sequence (Q9P286 whole entry): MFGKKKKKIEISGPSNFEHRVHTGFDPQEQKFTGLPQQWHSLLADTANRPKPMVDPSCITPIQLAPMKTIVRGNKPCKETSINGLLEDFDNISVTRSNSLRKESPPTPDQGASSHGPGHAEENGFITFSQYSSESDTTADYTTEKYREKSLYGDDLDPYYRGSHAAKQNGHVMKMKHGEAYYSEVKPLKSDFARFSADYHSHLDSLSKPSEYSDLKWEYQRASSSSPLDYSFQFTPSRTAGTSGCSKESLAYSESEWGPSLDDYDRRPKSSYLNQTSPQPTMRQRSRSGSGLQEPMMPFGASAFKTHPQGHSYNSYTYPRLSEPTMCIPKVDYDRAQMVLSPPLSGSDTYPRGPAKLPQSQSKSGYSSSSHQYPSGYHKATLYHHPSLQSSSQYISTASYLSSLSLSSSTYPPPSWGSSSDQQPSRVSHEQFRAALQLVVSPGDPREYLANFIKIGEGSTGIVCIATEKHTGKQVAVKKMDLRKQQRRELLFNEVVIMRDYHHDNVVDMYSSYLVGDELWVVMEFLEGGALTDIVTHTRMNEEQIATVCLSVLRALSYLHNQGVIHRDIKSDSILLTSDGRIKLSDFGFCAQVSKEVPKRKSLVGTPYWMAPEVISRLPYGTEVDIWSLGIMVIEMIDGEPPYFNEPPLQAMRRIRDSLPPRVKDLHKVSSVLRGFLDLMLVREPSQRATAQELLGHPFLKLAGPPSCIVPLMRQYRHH
T7 sequence (Q86Z02 whole entry): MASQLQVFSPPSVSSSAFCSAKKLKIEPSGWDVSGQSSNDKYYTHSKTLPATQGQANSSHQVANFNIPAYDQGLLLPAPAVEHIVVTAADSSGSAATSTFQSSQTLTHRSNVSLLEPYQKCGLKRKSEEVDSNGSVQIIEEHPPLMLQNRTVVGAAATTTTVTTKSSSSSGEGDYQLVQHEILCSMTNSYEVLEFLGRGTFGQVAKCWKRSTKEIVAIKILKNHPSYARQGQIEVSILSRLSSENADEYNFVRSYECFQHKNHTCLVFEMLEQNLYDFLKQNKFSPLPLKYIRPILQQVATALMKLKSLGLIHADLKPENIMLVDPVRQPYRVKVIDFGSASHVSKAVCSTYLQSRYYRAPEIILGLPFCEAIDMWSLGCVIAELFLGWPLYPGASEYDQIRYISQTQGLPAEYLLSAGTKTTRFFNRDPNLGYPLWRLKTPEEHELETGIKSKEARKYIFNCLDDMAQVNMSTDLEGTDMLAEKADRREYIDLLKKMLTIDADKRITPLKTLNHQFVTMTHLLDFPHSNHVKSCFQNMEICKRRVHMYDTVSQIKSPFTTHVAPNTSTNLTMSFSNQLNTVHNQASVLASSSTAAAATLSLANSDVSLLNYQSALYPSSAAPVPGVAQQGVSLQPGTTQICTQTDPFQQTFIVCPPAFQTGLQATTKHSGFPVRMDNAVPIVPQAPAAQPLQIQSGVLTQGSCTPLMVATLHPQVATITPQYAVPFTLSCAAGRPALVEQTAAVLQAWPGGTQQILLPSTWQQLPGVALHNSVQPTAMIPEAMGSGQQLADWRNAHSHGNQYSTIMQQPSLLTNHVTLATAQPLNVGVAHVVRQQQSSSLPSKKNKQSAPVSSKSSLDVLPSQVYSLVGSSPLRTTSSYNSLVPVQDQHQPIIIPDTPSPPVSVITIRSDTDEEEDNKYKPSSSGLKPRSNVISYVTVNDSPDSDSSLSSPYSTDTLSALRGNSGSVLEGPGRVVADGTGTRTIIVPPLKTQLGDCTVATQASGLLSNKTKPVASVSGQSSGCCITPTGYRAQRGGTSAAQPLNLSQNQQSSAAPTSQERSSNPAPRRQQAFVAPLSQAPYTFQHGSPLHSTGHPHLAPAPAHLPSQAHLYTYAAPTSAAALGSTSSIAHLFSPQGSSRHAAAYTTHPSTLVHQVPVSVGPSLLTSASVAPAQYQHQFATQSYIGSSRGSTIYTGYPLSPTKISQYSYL
T9 sequence (Q5TCY1 whole entry): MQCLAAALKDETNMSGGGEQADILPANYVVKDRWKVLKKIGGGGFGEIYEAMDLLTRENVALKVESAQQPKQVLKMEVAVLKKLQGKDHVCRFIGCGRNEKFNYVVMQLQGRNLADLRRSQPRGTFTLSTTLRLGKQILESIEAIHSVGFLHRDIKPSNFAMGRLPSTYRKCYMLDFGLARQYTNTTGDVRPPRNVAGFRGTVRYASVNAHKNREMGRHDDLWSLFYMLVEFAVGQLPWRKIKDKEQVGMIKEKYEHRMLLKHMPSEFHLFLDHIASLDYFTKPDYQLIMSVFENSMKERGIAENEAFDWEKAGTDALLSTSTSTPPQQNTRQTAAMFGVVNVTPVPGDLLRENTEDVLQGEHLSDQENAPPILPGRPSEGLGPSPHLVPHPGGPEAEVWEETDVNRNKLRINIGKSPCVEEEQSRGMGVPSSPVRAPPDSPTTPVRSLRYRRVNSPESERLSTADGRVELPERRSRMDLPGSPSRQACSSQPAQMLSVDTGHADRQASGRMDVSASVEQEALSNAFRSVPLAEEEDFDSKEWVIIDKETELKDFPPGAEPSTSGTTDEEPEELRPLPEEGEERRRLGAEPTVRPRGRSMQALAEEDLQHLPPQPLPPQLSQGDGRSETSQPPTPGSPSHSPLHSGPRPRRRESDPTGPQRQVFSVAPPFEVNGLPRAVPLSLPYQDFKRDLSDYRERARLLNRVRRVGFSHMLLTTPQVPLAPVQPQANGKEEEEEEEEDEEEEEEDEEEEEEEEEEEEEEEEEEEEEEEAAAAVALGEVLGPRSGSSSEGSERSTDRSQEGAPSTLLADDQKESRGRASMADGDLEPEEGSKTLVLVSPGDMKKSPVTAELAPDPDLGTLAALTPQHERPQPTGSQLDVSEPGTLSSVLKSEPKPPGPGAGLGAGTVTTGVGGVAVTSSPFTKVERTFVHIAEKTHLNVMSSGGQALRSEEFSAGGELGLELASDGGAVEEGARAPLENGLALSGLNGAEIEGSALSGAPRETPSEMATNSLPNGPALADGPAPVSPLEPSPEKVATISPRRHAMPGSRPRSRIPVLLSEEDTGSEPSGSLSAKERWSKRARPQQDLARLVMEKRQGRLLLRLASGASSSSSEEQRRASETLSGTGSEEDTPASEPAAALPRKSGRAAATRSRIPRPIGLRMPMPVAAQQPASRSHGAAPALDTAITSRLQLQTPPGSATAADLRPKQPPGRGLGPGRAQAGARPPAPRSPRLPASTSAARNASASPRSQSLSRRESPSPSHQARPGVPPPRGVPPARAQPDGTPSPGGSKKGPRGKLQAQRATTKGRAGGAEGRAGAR
T4 sequence (Q9NQU5 whole entry): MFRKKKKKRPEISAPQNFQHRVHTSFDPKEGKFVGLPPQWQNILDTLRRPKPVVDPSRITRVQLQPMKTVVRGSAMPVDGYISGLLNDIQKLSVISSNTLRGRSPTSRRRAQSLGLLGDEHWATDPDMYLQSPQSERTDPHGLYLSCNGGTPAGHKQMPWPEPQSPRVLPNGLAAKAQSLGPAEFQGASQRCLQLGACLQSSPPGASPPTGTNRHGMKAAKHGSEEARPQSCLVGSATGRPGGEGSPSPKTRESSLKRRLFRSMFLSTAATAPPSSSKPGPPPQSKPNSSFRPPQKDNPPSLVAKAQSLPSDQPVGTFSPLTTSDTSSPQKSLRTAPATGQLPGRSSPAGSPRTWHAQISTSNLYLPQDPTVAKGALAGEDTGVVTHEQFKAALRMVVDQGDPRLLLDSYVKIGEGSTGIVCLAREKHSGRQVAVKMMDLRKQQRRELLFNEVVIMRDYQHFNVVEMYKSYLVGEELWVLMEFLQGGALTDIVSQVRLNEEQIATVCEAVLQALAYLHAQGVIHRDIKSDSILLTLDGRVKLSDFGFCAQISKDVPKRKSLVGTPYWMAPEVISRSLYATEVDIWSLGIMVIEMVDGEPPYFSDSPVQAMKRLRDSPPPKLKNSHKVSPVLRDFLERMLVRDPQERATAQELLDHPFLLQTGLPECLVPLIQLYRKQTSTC
T6 sequence (Q9Y4K4 whole entry): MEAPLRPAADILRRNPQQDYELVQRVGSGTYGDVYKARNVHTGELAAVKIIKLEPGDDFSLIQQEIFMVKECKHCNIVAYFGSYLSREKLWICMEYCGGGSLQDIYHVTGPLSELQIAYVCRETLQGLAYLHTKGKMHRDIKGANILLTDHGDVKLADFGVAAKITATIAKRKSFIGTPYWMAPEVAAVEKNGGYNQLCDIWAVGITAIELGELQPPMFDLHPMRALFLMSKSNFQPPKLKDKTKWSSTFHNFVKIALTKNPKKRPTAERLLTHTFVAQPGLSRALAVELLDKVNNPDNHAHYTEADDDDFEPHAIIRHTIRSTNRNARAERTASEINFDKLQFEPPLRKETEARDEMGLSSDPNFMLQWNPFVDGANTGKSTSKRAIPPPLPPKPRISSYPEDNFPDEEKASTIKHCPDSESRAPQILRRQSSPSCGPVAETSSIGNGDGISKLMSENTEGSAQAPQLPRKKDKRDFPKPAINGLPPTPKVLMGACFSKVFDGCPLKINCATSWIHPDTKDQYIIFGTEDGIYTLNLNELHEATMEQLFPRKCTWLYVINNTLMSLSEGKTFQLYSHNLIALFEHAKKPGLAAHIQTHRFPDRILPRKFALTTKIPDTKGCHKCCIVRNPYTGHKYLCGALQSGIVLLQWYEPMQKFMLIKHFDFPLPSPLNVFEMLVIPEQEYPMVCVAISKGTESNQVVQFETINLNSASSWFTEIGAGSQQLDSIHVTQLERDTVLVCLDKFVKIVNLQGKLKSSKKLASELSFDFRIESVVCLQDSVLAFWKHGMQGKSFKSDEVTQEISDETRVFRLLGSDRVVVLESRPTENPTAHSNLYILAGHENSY
T8 sequence (Q9P286 whole entry): as the sequence (Q9P286 whole entry) above
T10 sequence (O75676 411-674 limits assumed): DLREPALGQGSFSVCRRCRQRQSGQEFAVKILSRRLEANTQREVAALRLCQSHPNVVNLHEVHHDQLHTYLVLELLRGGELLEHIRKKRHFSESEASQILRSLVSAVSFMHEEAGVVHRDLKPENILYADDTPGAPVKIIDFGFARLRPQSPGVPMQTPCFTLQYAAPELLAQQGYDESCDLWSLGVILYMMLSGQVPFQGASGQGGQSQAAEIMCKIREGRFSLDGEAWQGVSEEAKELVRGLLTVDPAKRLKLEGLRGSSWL

SMILES | TTBK2 PoC ([1]; ATP at Km) | # scanMAX kinases with PoC < 10 [2] | S10(1 μM) [2] | TSSK4 PoC at 1 μM [3] | TSSK3 PoC at 1 μM [4] | PAK6 PoC at 1 μM [5] | PAK5 PoC at 1 μM [6] | MAP4K5 PoC at 1 μM [7] | HIPK1 PoC at 1 μM [8] | percent of control (kinase binding) at 1 µM ([9]; read-out: PAK7 % control at 1000nM) | percent of control (binding) at 1 µM ([10]; read-out: PAK6 % control at 1000nM) | IC50 [1] | IC50 [1, 14] | # kinases < 10 PoC in enzyme panel [11] | IC50 [12, 15] | IC50 [12, 16] | RPS6KA4(Kin.Dom.2-C-terminal) % control at 1000nM [13] | PAK7 % control at 1000nM ([9]; 1 μM) | PAK6 % control at 1000nM ([10]; 1 μM)
CC(C)(O)C#Cc1ccc2[nH]c3c(c2c1)-c1nc(N)ncc1CCC3 [AMG28, reference compound] | 20 PoC | 21 | 0.052 | 70 PoC | 1 PoC | 6 PoC | 3 PoC | 1 PoC | 67 PoC | 0.3% | 2.9% | – | – | – | – | – | – | – | –
CC(C)(O)C#Cc1ccc2[nH]c3c(c2c1)-c1nc(N)ncc1CC3 [Compound 1] | 43 PoC | 20 | 0.05 | 55 PoC | 11 PoC | 51 PoC | 48 PoC | 3 PoC | 76 PoC | – | – | > 1 µM | 1.21 µM | 2 | > 30 µM | 2.5 µM | 7.3 % control | – | –
CC(C)(O)C#Cc1ccc2[nH]c3c(c2c1)-c1nc(N)ncc1CCCC3 [Compound 2] | 69 PoC and 69/NT PoC | – | – | 77 PoC | 120 PoC | 77 PoC | 87 PoC | 9 PoC | 96 PoC | – | – | – | – | 1 | > 30 µM | 19 µM | – | – | –
CC(C)(O)C#Cc1ccc2[nH]cc(-c3ccnc(N)n3)c2c1 [Compound 3] | 24 PoC | 34 | 0.084 | 78 PoC | 5 PoC | 40 PoC | 31 PoC | 1 PoC | 87 PoC | – | – | – | 0.384 µM | 3 | – | – | 0.1 % control | 0.4 % control | 6.7 % control
COC(C)(C)C#Cc1ccc2[nH]c3c(c2c1)-c1nc(N)ncc1CCC3 [Compound 11] | 110 PoC and 110/NT PoC | – | – | 101 PoC | 75 PoC | 92 PoC | 88 PoC | 9 PoC | 96 PoC | – | – | – | – | 1 | > 30 µM | > 30 µM | – | – | –
